Test results: paper PMC3797739, “Identification of Semicarbazones, Thiosemicarbazones and Triazine Nitriles as Inhibitors of Leishmania mexicana Cysteine Protease CPB” (PLoS ONE, 2013)

What was measured:
L. mexicana CPB2.8∆CTE [1] = molecular target: L. mexicana CPB2.8∆CTE (Leishmania mexicana, UniProt P36400); test: CPB2.8∆CTE fluorescence endpoint assay with Z-F-R-AMC substrate; type: biochemical
Protocol: (§1) The activities of CPB2.8∆CTE and BtCatB were measured in a homogeneous fluorescence endpoint assay using Z-F-R-AMC as substrate, modified from published methods. The fluorophore AMC (7-amino-4-methylcoumarin) is released by active cysteine protease, and can be detected at 360 nm excitation and 465 nm emission. The assay was optimized for automated high throughput screening on a Biomek FX workstation (Beckman Coulter). All assays were carried out in black 384 well plates at room temperature (22°C). Each plate contained 24 controls in the 23rd and 24th rows of the plate, including 8 positive controls and 8 blanks (without enzyme) as well as 8 inhibitor controls. E-64 was used as standard inhibitor. […] Test compounds available as 10 mM stock solutions in DMSO were diluted further in DMSO, except for the last 1:10 step, which was done in H2O to lower the DMSO concentration in the assay. Final concentrations of the test compounds from 30 µM to 0.3 nM were used. For the L. mexicana CPB2.8∆CTE assay, 5 µl test compound or 5 µl DMSO in acetate buffer (10% DMSO) was added to each well of the microtiter plate. Subsequently, 25 µl of a premix containing sodium acetate buffer (final concentration [f.c.] 100 mM), titriplex II (f.c. 1 mM) (Merck, Darmstadt, Germany), DTT (f.c. 10 mM) (Carl Roth GmbH, Karlsruhe, Germany), triton (f.c. 0.01%) (Merck, Darmstadt, Germany), BSA (f.c. 0.1 mg/ml) (PAA Laboratories GmbH, Pasching, Austria) and enzyme was added to each well, except the wells for the blanks, which include the premix without enzyme. After an incubation time of 10 min, the reaction was started by addition of substrate (20 µl Z-F-R-AMC; f.c. 20 µM). The reaction was stopped after 35 min incubation at room temperature by addition of 10 µl inhibitor E64 (f.c. 16.7 µM) and enzyme activity was measured with a SpectraFluorPlus (Tecan Inc., Durham, NC) plate reader using excitation at 360 nm with emission at 465 nm. The assay procedure for BtCatB was the same as for the CPB2.8∆CTE assay with the exceptions of the final concentration of the substrate Z-F-R-AMC (100 µM) and the stop of the assay using a stop buffer containing sodium acetate and sodium chlorine acetate (f.c. 41.7 mM each).
(§2) The percentage enzyme activity was calculated using the formula (V-B)/(C-B) x 100%, with V being the absorbance of the assay containing the test compound, B being the absorbance of the negative control (‘blank’) and C being the absorbance of the positive control. In primary screening, all compounds of the screening library were tested at 10 µM in double point measurements. Z´ factors, which describe the quality of an assay, were in the range of 0.85-0.99. The Z´ factor is defined in terms of four parameters: the means and standard deviations of both the positive (p) and negative (n) controls: Z´= 1-((3 x (STDEVp + STDEVn))/(MEANp - MEANn)).
(§3) The theoretical hit limit for a HTS primary screen can be calculated as MEAN + 3 x STDEV of inhibitions from diverse compounds. […] In our case, based on a preliminary screen of >3000 diverse compounds, the hit limit was determined between 12.8% and 22.9% inhibition. For practical reasons, screening hit limits are normally set above this limit, aiming at approximately 0.2-0.4% hits from a diverse library. Therefore, 50% inhibition at 10 µM compound concentration compared to the positive controls was considered a hit compound and were subjected to hit verification (IC50 determination from liquid compound stock) using CPB2.8∆CTE and BtCatB to get the activity profile of the compounds. Hit confirmation (IC50 determination from freshly dissolved solid compound stock) was performed for all compounds with an IC50 ≤ 30 µM on CPB2.8∆CTE. Compound concentrations used for IC50 determinations were as follows: 30 µM, 10 µM, 3 µM, 1 µM, 0.3 µM, 0.1 µM, 0.03 µM, 0.01 µM, 0.003 µM, 0.001 µM, and 0.0003 µM. […]

[2] = molecular target: T1, bovine cathepsin B (BtCatB) (Bos taurus, UniProt P07688); test: BtCatB counter assay, fluorescence endpoint with Z-F-R-AMC substrate; type: biochemical; conditions: mean ± SD, three independent experiments, substrate Z-F-R-AMC 100 µM
T1 construct: purchased Sigma-Aldrich Inc., St. Louis, MO, USA; host or cells: bovine spleen
Protocol: The activities of CPB2.8∆CTE and BtCatB were measured in a homogeneous fluorescence endpoint assay using Z-F-R-AMC as substrate, modified from published methods. The fluorophore AMC (7-amino-4-methylcoumarin) is released by active cysteine protease, and can be detected at 360 nm excitation and 465 nm emission. The assay was optimized for automated high throughput screening on a Biomek FX workstation (Beckman Coulter). All assays were carried out in black 384 well plates at room temperature (22°C). Each plate contained 24 controls in the 23rd and 24th rows of the plate, including 8 positive controls and 8 blanks (without enzyme) as well as 8 inhibitor controls. E-64 was used as standard inhibitor. […] Test compounds available as 10 mM stock solutions in DMSO were diluted further in DMSO, except for the last 1:10 step, which was done in H2O to lower the DMSO concentration in the assay. Final concentrations of the test compounds from 30 µM to 0.3 nM were used. For the L. mexicana CPB2.8∆CTE assay, 5 µl test compound or 5 µl DMSO in acetate buffer (10% DMSO) was added to each well of the microtiter plate. […] The reaction was stopped after 35 min incubation at room temperature by addition of 10 µl inhibitor E64 (f.c. 16.7 µM) and enzyme activity was measured with a SpectraFluorPlus (Tecan Inc., Durham, NC) plate reader using excitation at 360 nm with emission at 465 nm. […]
The percentage enzyme activity was calculated using the formula (V-B)/(C-B) x 100%, with V being the absorbance of the assay containing the test compound, B being the absorbance of the negative control (‘blank’) and C being the absorbance of the positive control. […]
The theoretical hit limit for a HTS primary screen can be calculated as MEAN + 3 x STDEV of inhibitions from diverse compounds. […]

L. mexicana CPB2.8∆CTE [3] = test: CPB2.8∆CTE fluorescence endpoint assay with Z-F-R-AMC substrate; type: biochemical, Leishmania mexicana; conditions: ratio of IC50 on CPB2.8∆CTE to IC50 on BtCatB
Protocol: as §1, §2, §3

Chain of L. mexicana CPB2.8∆CTE (Leishmania mexicana, UniProt P36400) (P36400 126-343): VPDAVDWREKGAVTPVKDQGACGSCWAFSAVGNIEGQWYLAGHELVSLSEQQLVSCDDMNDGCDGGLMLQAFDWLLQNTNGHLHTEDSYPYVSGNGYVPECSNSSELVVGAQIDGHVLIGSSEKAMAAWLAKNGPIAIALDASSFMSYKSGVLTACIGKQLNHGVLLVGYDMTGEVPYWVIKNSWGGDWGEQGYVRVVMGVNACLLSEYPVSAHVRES

In the case of `CC(C)C[C@H](NC(=O)[C@H]1O[C@@H]1C(=O)O)C(=O)NCCCCNC(=N)N` (relative stereo) [Compound E-64, 1-[N-[(L-3-trans-carboxyoxirane-2-carbonyl)-L-leucyl]amino]-4-guanidinobutane, reference compound], the “inhibition of protease activity” value (L. mexicana CPB2.8∆CTE [1]; final concentration 10 µM, standard inhibitor control of the CPB2.8∆CTE and BtCatB assays) is reported as “complete inhibition”.

`NC(=O)N/N=c1\oc2ccccc2cc1-c1nc2ccccc2[nH]1` [CP229988, 3-[(1H-benzimidazol-2-yl)-2H-1-benzopyran-2-ylidene]-2-carbaldehyde semicarbazone] gave an IC50 [2] greater than 30 µM, an IC50 (L. mexicana CPB2.8∆CTE [1]) of 0.01 ± 0.003 µM and a Ki (L. mexicana CPB2.8∆CTE [1]) of 0.005 ± 0.002 µM. The “selectivity ratio (CPB2.8∆CTE/BtCatB)” value (L. mexicana CPB2.8∆CTE [3]) was less than 0.00033.

Work on `COc1ncccc1Nc1nc(C#N)nc(NC2CCCCC2)n1` [CP241026, 4-(cyclohexylamino)-6-[(2-methoxy-3-pyridinyl)amino]-1,3,5-triazine-2-carbonitrile] yielded an IC50 [2] of 13.8 ± 4.5 µM, an IC50 (L. mexicana CPB2.8∆CTE [1]) of 1.1 ± 0.15 µM and a Ki (L. mexicana CPB2.8∆CTE [1]) of 0.57 ± 0.08 µM.

With `NC(=S)NN=Cc1c(-c2ccccc2)[nH]c2ccccc12` [CP247128, 2-phenyl-1H-indole-3-carbaldehyde thiosemicarbazone] the IC50 (L. mexicana CPB2.8∆CTE [1]) was 0.06 ± 0.01 µM.

With `COc1ccc(-c2ccc(/C=N/NC(N)=S)o2)cc1` [CP247129, 5-(4-methoxy-phenyl)-2-furanyl-2-carbaldehyde thiosemicarbazone] the IC50 [2] was greater than 30 µM, the IC50 (L. mexicana CPB2.8∆CTE [1]) was 0.07 ± 0.04 µM and the Ki (L. mexicana CPB2.8∆CTE [1]) was 0.04 ± 0.02 µM.
